The target in this test is T1, Full-length USP19 (Homo sapiens, UniProt O94966).
T1 construct: Full-length USP19 was purchased from Boston Biochem (E-576); purchased Boston Biochem E-576
T1 sequence (O94966 1-1318): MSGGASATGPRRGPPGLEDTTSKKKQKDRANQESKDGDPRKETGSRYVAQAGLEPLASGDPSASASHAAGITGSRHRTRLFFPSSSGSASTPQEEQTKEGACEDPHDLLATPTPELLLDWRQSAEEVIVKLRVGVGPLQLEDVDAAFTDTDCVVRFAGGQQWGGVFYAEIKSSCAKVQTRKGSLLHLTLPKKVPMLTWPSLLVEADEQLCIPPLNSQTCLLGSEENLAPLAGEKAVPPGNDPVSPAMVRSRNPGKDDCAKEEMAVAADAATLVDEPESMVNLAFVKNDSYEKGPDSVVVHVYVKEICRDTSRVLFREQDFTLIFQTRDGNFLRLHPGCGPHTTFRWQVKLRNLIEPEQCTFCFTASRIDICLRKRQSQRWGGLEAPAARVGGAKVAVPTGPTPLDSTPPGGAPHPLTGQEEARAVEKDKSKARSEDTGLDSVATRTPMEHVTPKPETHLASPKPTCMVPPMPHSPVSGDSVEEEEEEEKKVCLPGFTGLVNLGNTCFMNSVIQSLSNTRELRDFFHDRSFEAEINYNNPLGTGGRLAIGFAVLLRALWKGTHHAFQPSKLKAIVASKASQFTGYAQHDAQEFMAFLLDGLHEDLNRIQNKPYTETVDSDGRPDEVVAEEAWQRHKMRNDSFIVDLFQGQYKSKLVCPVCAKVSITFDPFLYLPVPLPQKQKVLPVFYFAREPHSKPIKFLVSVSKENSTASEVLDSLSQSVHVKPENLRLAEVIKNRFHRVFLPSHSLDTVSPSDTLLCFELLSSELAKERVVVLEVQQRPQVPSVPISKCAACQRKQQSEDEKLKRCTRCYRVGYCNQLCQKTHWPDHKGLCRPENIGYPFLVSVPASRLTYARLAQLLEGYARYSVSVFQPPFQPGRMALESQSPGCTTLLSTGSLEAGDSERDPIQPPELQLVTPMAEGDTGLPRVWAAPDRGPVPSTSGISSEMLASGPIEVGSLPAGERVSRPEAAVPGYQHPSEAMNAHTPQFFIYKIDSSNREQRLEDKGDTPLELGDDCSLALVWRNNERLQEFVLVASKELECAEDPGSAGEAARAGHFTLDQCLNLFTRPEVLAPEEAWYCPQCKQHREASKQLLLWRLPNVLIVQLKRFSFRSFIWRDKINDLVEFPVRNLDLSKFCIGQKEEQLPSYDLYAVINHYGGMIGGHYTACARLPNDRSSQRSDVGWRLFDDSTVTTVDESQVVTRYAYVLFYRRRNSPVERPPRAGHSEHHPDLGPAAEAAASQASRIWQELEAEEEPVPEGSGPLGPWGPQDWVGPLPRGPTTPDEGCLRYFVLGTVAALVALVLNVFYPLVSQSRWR
Nature of the test: USP19 fluorescence polarisation (FP) assay, Ubiquitin-Lys-TAMRA substrate. In kind it is biochemical. As to conditions: average of at least two duplicate experiments. As to the method:
USP19 activity was determined in a fluorescence polarisation (FP) homogeneous assay using the isopeptide Ubiquitin-Lys-TAMRA substrate (either AUB-101, Almac Sciences Scotland Limited, or U-558, Boston Biochem, both of which gave identical results). Full-length USP19 was purchased from Boston Biochem (E-576). Unless otherwise stated, all other reagents were purchased from Sigma. Enzymatic reactions were conducted in black flat bottom polystyrene 384-well plates (Nunc) and 30 μL total volume. USP19 (2.5 nM, 10 μL) was incubated in assay buffer (50 mM HEPES (pH 7.4), 150 mM NaCl, 5 mM DTT, 0.05% BSA (w/v), 0.05% CHAPS) in the presence or absence of inhibitor (10 μL). Inhibitors were stored as 10 mM DMSO stocks in an inert environment (low humidity, dark, low oxygen, rt) using the StoragePod® system (Roylan Developments) and serial dilutions were prepared in buffer just prior to the assay (from 200 μM to 2 μM, 8-18 data point curve). Following incubation at RT for 30 min, the enzymatic reactions were initiated by dispensing the Ub substrate (500 nM, 10 μL). FP was measured every 15 min over a period of 90 min (within the linear range of the assay) using a Synergy 4 plate reader (BioTek) exciting at 530 nm and measuring the amount of parallel and perpendicular light at 575 nm. The FP signal was subsequently normalised to the no compound control. Data were plotted and fitted, and the concentrations resulting in 50% inhibition (IC50) were calculated using the non-linear regression curve fitting model using GraphPad (Prism). IC50 values for the inhibitors of the invention are compiled in Tables 1 and 3 and represent the average of at least two duplicate experiments.
On the technique in general: Fluorescence polarisation rises when a labelled molecule tumbles more slowly, as on binding a larger partner.

Where a name gives a salt, the structure may show the parent alone. Bounds are passed on as bounds.

Regarding `CN[C@@H]1CCN(C(=O)N2CC[C@@H](Cn3ccc(-c4ccccc4OC)cc3=O)C3(CCCC3)C2)[C@H](c2cc(F)ccc2F)C1` [Example 113, 1-(((R)-7-((2S,4R)-2-(2,5-Difluorophenyl)-4-(methylamino)piperidine-1-carbonyl)-7-azaspiro[4.5]decan-10-yl)methyl)-4-(2-methoxyphenyl)pyridin-2(1H)-one], the IC50 – broadly, the concentration at which inhibition is half-maximal – is under 10 nM. The figure for `COc1ccccc1-c1cc(=O)n(C[C@@H]2CCN(C(=O)N3CC[C@@H](N4CCOCC4)C[C@H]3c3ccccc3)CC23CCCC3)cn1` [Example 110, 6-(2-Methoxyphenyl)-3-(((R)-7-((2S,4R)-4-morpholino-2-phenylpiperidine-1-carbonyl)-7-azaspiro[4.5]decan-10-yl)methyl)pyrimidin-4(3H)-one] is 10 to 100 nM; for `CN[C@@H]1CCN(C(=O)N2CC[C@@H](Cn3cnc(-c4ccccc4)cc3=O)C3(CCCC3)C2)[C@H](c2cc(F)cc(F)c2)C1` [Example 122, 3-(((R)-7-((2S,4R)-2-(3,5-Difluorophenyl)-4-(methylamino)piperidine-1-carbonyl)-7-azaspiro[4.5]decan-10-yl)methyl)-6-phenylpyrimidin-4(3H)-one] it is under 10 nM. The figure for `O=C(N1CC[C@@H](Cn2cnc(-c3ccccc3)cc2=O)C2(CCCC2)C1)N1CC[C@@H](NCc2ccc(F)cn2)C[C@H]1c1ccccc1` [Example 148, 3-(((R)-7-((2S,4R)-4-(((5-Fluoropyridin-2-yl)methyl)amino)-2-phenylpiperidine-1-carbonyl)-7-azaspiro[4.5]decan-10-yl)methyl)-6-phenylpyrimidin-4(3H)-one] is under 10 nM; for `N[C@@H]1CCN(C(=O)N2CCC(Cn3cnc(C4CC4)cc3=O)C3(CCCC3)C2)[C@H](c2ccccc2)C1` (stereo partly drawn) [Example 29, 3-((7-((2S,4R)-4-Amino-2-phenylpiperidine-1-carbonyl)-7-azaspiro[4.5]decan-10-yl)methyl)-6-cyclopropyl-pyrimidin-4(3H)-one] it is under 10 nM; for `N[C@@H]1CCN(C(=O)N2CCC(CN3CCOCC3=O)C3(CCCC3)C2)[C@H](c2ccccc2)C1` (stereo partly drawn) [Example 41, 4-((7-((2S,4R)-4-Amino-2-phenylpiperidine-1-carbonyl)-7-azaspiro[4.5]decan-10-yl)methyl) morpholin-3-one] it is 10 to 100 nM. The value for `N[C@@H]1CCN(C(=O)N2CCC(Cn3ccc4ccncc4c3=O)C3(CCCC3)C2)[C@H](c2ccccc2)C1` (stereo partly drawn) [Example 33, 2-((7-((2S,4R)-4-Amino-2-phenylpiperidine-1-carbonyl)-7-azaspiro[4.5]decan-10-yl)methyl)-2,7-naphthyridin-1(2H)-one] was 10 to 100 nM; that for `CN[C@@H]1CCN(C(=O)N2CC[C@@H](Cn3cnc(-c4ccccc4OC)cc3=O)C3(CCCC3)C2)[C@H](c2cccc(F)c2)C1` [Example 102, 3-(((R)-7-((2S,4R)-2-(3-Fluorophenyl)-4-(methylamino)piperidine-1-carbonyl)-7-azaspiro[4.5]decan-10-yl)methyl)-6-(2-methoxyphenyl)pyrimidin-4(3H)-one] was under 10 nM; that for `N[C@@H]1CCN(C(=O)N2CC[C@@H](Cn3cnc(-c4ccccc4)cc3=O)C3(CCCC3)C2)[C@H](c2cccc(F)c2)C1` [Example 66, 3-(((R)-7-((2,4R)-4-Amino-2-(3-fluorophenyl)piperidine-1-carbonyl)-7-azaspiro[4.5]decan-10-yl)methyl)-6-phenylpyrimidin-4(3H)-one] was under 10 nM.

As to `CC1(N[C@@H]2CCN(C(=O)N3CC[C@@H](Cn4cnc(-c5ccccc5)cc4=O)C4(CCCC4)C3)[C@H](c3ccccc3)C2)CC1` [Example 151, 3-(((R)-7-((2S,4R)-4-((1-Methylcyclopropyl)amino)-2-phenylpiperidine-1-carbonyl)-7-azaspiro[4.5]decan-10-yl)methyl)-6-phenylpyrimidin-4(3H)-one], the IC50 was under 10 nM. As for `CN[C@@H]1CCN(C(=O)N2CC[C@@H](Cn3ccc(-c4ccccc4OC)cc3=O)C3(CCCC3)C2)[C@H](c2cccc(F)c2F)C1` [Example 131, 1-(((R)-7-((2S,4R)-2-(2,3-Difluorophenyl)-4-(methylamino)piperidine-1-carbonyl)-7-azaspiro[4.5]decan-10-yl)methyl)-4-(2-methoxyphenyl)pyridin-2(1H)-one], the concentration for half-maximal inhibition (IC50) is under 10 nM. Regarding `N[C@H]1C[C@@H](c2ccccc2)N(C(=O)N2CC[C@@H](Cn3cnc(-c4ccccc4)cc3=O)C3(CCCC3)C2)C1` [Example 70, 3-(((R)-7-((2S,4S)-4-Amino-2-phenylpyrrolidine-1-carbonyl)-7-azaspiro[4.5]decan-10-yl)methyl)-6-phenylpyrimidin-4(3H)-one], the IC50 is under 10 nM. Consider `CC1(N[C@@H]2CCN(C(=O)N3CC[C@@H](Cn4ccc(-c5ccccc5)cc4=O)C4(CCCC4)C3)[C@H](c3ccccc3)C2)COC1` [Example 111, 1-(((R)-7-((2S,4R)-4-((3-Methyloxetan-3-yl)amino)-2-phenylpiperidine-1-carbonyl)-7-azaspiro[4.5]decan-10-yl)methyl)-4-phenylpyridin-2(1H)-one], for which the IC50 was under 10 nM.

`CN[C@@H]1CCN(C(=O)N2CC[C@@H](Cn3cnc4ccccc4c3=O)C3(CCCC3)C2)[C@H](c2cc(F)ccc2F)C1` [Example 199, 3-(((R)-7-((2S,4R)-2-(2,5-Difluorophenyl)-4-(methylamino)piperidine-1-carbonyl)-7-azaspiro[4.5]decan-10-yl)methyl)quinazolin-4(3H)-one]: the concentration for half-maximal inhibition (IC50) is under 10 nM. `N[C@@H]1CCN(C(=O)N2CCC(Cn3ccc(C(F)F)cc3=O)C3(CCCC3)C2)[C@H](c2ccccc2)C1` (stereo partly drawn) [Example 38, 1-((7-((2S,4R)-4-Amino-2-phenylpiperidine-1-carbonyl)-7-azaspiro[4.5]decan-10-yl)methyl)-4-(difluoromethyl) pyridin-2(1H)-one]: the IC50 is under 10 nM.

On to `CN(C)[C@@H]1CCN(C(=O)N2CC[C@@H](Cn3cnc4ccc(F)cc4c3=O)C3(CCCC3)C2)[C@H](c2cc(F)cc(F)c2)C1` [Example 184, 3-(((R)-7-((2S,4R)-2-(3,5-Difluorophenyl)-4-(dimethylamino)piperidine-1-carbonyl)-7-azaspiro[4.5]decan-10-yl)methyl)-6-fluoroquinazolin-4(3H)-one hydrochloride], for which the concentration for half-maximal inhibition (IC50) lay within 100 to 1000 nM. The figure for `CN[C@@H]1CCN(C(=O)N2CC[C@@H](Cn3cnc(-c4ccccc4F)cc3=O)C3(CCCC3)C2)[C@H](c2ccc(F)c(F)c2)C1` [Example 142, 3-(((R)-7-((2S,4R)-2-(3,4-Difluorophenyl)-4-(methylamino)piperidine-1-carbonyl)-7-azaspiro[4.5]decan-10-yl)methyl)-6-(2-fluorophenyl)pyrimidin-4(3H)-one] is under 10 nM; for `COC[C@H](CC(F)(F)F)C(=O)N1CCC(Cn2cnc(-c3ccccc3)cc2=O)C2(CCCC2)C1` (stereo partly drawn) [Example 7, 6-Phenyl-3-((7-((S)-4,4,4-trifluoro-2-(methoxymethyl)butanoyl)-7-azaspiro[4.5]decan-10-yl)methyl)pyrimidin-4(3H)-one] it is 1000 to 20000 nM.

Source of the values: patent US20240327382A1 (ALMAC DISCOVERY LIMITED, priority 2021, published 2024).
